Legend:
Type in all cases: in vivo
[1] = test system: Scirpus juncoides; test: Test Example 2: herbicidal activity, application during weed generation in submerged conditions (symbol B); conditions: Table 23; application herbicide amount 320 g/ha; grade 0-5 by criteria of Test Example 1
Procedure, shortened: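 Compound was applied as a water-diluted emulsion into the standing water of flooded pots (4 cm) once co-sown weeds reached one to two leaves. Greenhouse temperature was 25° C. to 30° C., soil was alluvial, and each species was rated visually after 3 weeks.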

[2] = test system: Echinochloa crus-galli var. crus-galli; test: Test Example 3: herbicidal effect by foliage application, Wagner pot (symbol H); conditions: application herbicide amount 320 g/ha
Procedure, shortened: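 In a shallow-flooded alluvial soil system held at 25–30 °C, plants including rice grew for 14 days and were then sprayed over the foliage with emulsion diluted to a fixed herbicide amount. Visual rating followed at 3 weeks.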

[3] = test system: Apera spica-venti; test: Test Example 4: herbicidal effect by soil treatment (symbol L)
Procedure, shortened: (§1)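 Seeds were sown in sterilized diluvial soil, covered with about 1.5 cm of soil, and the soil surface was sprayed with a water-diluted emulsion of the compound at a predetermined rate. Plants grew in a greenhouse at 25° C. to 30° C.; effects were scored visually 3 weeks after application.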

[4] = test system: Stellaria media; test: Test Example 4: herbicidal effect by soil treatment (symbol P)
Procedure, shortened: as §1

[5] = test system: Veronica persica; test: Test Example 4: herbicidal effect by soil treatment (symbol R)
Procedure, shortened: as §1

[6] = test system: corn; test: Test Example 4: effect on crop by soil treatment (symbol c); conditions: for c: corn, effect on crop grade: application herbicide amount 320 g/ha
Procedure, shortened: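 Soil-treatment setup: crop and weed seeds were spot-sown into sterilized diluvial soil, then buried beneath approximately 1.5 cm of it, and the boxes were housed in a 25–30° C. greenhouse.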

[7] = test system: soybean; test: Test Example 4: effect on crop by soil treatment (symbol d); conditions: for d: soybean, effect on crop grade: application herbicide amount 320 g/ha
Procedure, shortened: (§2)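 Plants are raised in a greenhouse (25° C. to 30° C.) from spot-sown seed, which sits under about 1.5 cm of sterilized diluvial soil in a box shared with weed species.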

[8] = test system: wheat; test: Test Example 4: effect on crop by soil treatment (symbol e); conditions: for e: wheat, effect on crop grade: application herbicide amount 320 g/ha
Procedure, shortened: as §2

[9] = test system: Echinochloa crus-galli var. crus-galli; test: Test Example 5: herbicidal effect by foliage application, plastic box (symbol H); conditions: 320 g/ha, 3 weeks after application
Procedure, shortened: (§3)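 Greenhouse foliar test: seedlings at 14 days, grown 25° C. to 30° C. in sterilized diluvial soil; compound applied as an aqueous dilution of an emulsion; response read 3 weeks after spraying.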

[10] = test system: Avena fatua; test: Test Example 5: herbicidal effect by foliage application, plastic box (symbol I); conditions: 320 g/ha, 3 weeks after application
Procedure, shortened: as §3

[11] = test system: Lolium multiflorum Lam.; test: Test Example 5: herbicidal effect by foliage application, plastic box (symbol K); conditions: 320 g/ha, 3 weeks after application
Procedure, shortened: as §3

[12] = test system: Apera spica-venti; test: Test Example 5: herbicidal effect by foliage application, plastic box (symbol L); conditions: 320 g/ha, 3 weeks after application
Procedure, shortened: as §3

[13] = test system: Amaranthus retroflexus; test: Test Example 5: herbicidal effect by foliage application, plastic box (symbol N); conditions: 320 g/ha, 3 weeks after application
Procedure, shortened: as §3

[14] = test system: beet; test: Test Example 5: effect on crop by foliage application, plastic box (symbol f); conditions: 320 g/ha, 3 weeks after application
Procedure, shortened: (§4)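 Foliage-application test plants come from spot sowing in sterilized diluvial soil under a soil layer of about 1.5 cm, grown at 25° C. to 30° C. in a greenhouse.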

[15] = test system: rapeseed; test: Test Example 5: effect on crop by foliage application, plastic box (symbol g); conditions: 320 g/ha, 3 weeks after application
Procedure, shortened: as §4

[16] = application herbicide amount 320 g/ha

| Compound | Herbicidal effect grade, B: Scirpus juncoides [1] | herbicidal effect on H (Echinochloa crus-galli var. crus-galli), grade 0-5 [2] | L: Apera spica-venti, herbicidal effect grade [3, 16] | P: Stellaria media, herbicidal effect grade [4, 16] | R: Veronica persica, herbicidal effect grade [5, 16] | c: corn, effect on crop grade [6] | d: soybean, effect on crop grade [7] | e: wheat, effect on crop grade [8] | H: Echinochloa crus-galli var. crus-galli, herbicidal effect grade [9] | I: Avena fatua, herbicidal effect grade [10] | K: Lolium multiflorum Lam., herbicidal effect grade [11] | L: Apera spica-venti, herbicidal effect grade [12] | N: Amaranthus retroflexus, herbicidal effect grade [13] | f: beet, effect on crop grade [14] | g: rapeseed, effect on crop grade [15] | also measured |
| --- | --- | --- | --- | --- | --- | --- | --- | --- | --- | --- | --- | --- | --- | --- | --- | --- |
| CON=C(C)CC1CC(OC(=O)c2ccc(C(F)(F)F)cc2)=C(c2c(C)cc(C)cc2C)C1=O (stereo not drawn) [1-149] | 4 (Herbicidal ratio of 70% or higher and lower than 90%) | 5 (Herbicidal ratio of 90% or more (almost completely withered)) | – | – | – | – | – | – | – | – | – | – | – | – | – | L: Apera spica-venti, herbicidal effect grade ([3]; 320 g/ha): 5 (Herbicidal ratio of 90% or more (almost completely withered)); P: Stellaria media, herbicidal effect grade ([4]; 320 g/ha): 0 (Herbicidal ratio of 5% or lower (almost no effect)); R: Veronica persica, herbicidal effect grade ([5]; 320 g/ha): 0 (Herbicidal ratio of 5% or lower (almost no effect)); c: corn, effect grade on crop ([6]; 320 g/ha): 2 (Herbicidal ratio of 20% or higher and lower than 40%); d: soybean, effect grade on crop ([7]; 320 g/ha): 0 (Herbicidal ratio of 5% or lower (almost no effect)); e: wheat, effect grade on crop ([8]; 320 g/ha): 5 (Herbicidal ratio of 90% or more (almost completely withered)); H: Echinochloa crus-galli var. crus-galli, herbicidal effect (criteria 0-5) [9]: 5 (Herbicidal ratio of 90% or more (almost completely withered)); I: Avena fatua, herbicidal effect (criteria 0-5) [10]: 5 (Herbicidal ratio of 90% or more (almost completely withered)); K: Lolium multiflorum Lam., herbicidal effect (criteria 0-5) [11]: 5 (Herbicidal ratio of 90% or more (almost completely withered)); L: Apera spica-venti, herbicidal effect (criteria 0-5) [12]: 5 (Herbicidal ratio of 90% or more (almost completely withered)); N: Amaranthus retroflexus, herbicidal effect (criteria 0-5) [13]: 0 (Herbicidal ratio of 5% or lower (almost no effect)); f: beet, effect on crop (criteria 0-5) [14]: 2 (Herbicidal ratio of 20% or higher and lower than 40%); g: rapeseed, effect on crop (criteria 0-5) [15]: 4 (Herbicidal ratio of 70% or higher and lower than 90%) |
| CCOC(=O)C(C(=O)Cc1ccccc1)C1CC(O)=C(c2c(C)cc(C)cc2C)C1=O (stereo not drawn) [2-011] | 0 (Herbicidal ratio of 5% or lower (almost no effect)) | 0 (Herbicidal ratio of 5% or lower (almost no effect)) | 0 (Herbicidal ratio of 5% or lower (almost no effect)) | 0 (Herbicidal ratio of 5% or lower (almost no effect)) | 0 (Herbicidal ratio of 5% or lower (almost no effect)) | 0 (Herbicidal ratio of 5% or lower (almost no effect)) | 0 (Herbicidal ratio of 5% or lower (almost no effect)) | 0 (Herbicidal ratio of 5% or lower (almost no effect)) | 2 (Herbicidal ratio of 20% or higher and lower than 40%) | 0 (Herbicidal ratio of 5% or lower (almost no effect)) | 2 (Herbicidal ratio of 20% or higher and lower than 40%) | 0 (Herbicidal ratio of 5% or lower (almost no effect)) | 0 (Herbicidal ratio of 5% or lower (almost no effect)) | 0 (Herbicidal ratio of 5% or lower (almost no effect)) | 0 (Herbicidal ratio of 5% or lower (almost no effect)) | – |
| CCOC(=O)C(CC)(C(C)=O)C1CC(O)=C(c2c(C)cc(C)cc2C)C1=O (stereo not drawn) [2-012] | 0 (Herbicidal ratio of 5% or lower (almost no effect)) | 0 (Herbicidal ratio of 5% or lower (almost no effect)) | 0 (Herbicidal ratio of 5% or lower (almost no effect)) | 0 (Herbicidal ratio of 5% or lower (almost no effect)) | 0 (Herbicidal ratio of 5% or lower (almost no effect)) | 0 (Herbicidal ratio of 5% or lower (almost no effect)) | 0 (Herbicidal ratio of 5% or lower (almost no effect)) | 0 (Herbicidal ratio of 5% or lower (almost no effect)) | 1 (Herbicidal ratio of 5% or higher and lower than 20%) | 0 (Herbicidal ratio of 5% or lower (almost no effect)) | 3 (Herbicidal ratio of 40% or higher and lower than 70%) | 0 (Herbicidal ratio of 5% or lower (almost no effect)) | 0 (Herbicidal ratio of 5% or lower (almost no effect)) | 0 (Herbicidal ratio of 5% or lower (almost no effect)) | 0 (Herbicidal ratio of 5% or lower (almost no effect)) | – |
| COC(=O)C(C(=O)C1CC1)C1CC(O)=C(c2c(C)cc(C)cc2C)C1=O (stereo not drawn) [2-014] | 3 (Herbicidal ratio of 40% or higher and lower than 70%) | 5 (Herbicidal ratio of 90% or more (almost completely withered)) | 2 (Herbicidal ratio of 20% or higher and lower than 40%) | 0 (Herbicidal ratio of 5% or lower (almost no effect)) | 0 (Herbicidal ratio of 5% or lower (almost no effect)) | 3 (Herbicidal ratio of 40% or higher and lower than 70%) | 0 (Herbicidal ratio of 5% or lower (almost no effect)) | 0 (Herbicidal ratio of 5% or lower (almost no effect)) | 5 (Herbicidal ratio of 90% or more (almost completely withered)) | 4 (Herbicidal ratio of 70% or higher and lower than 90%) | 5 (Herbicidal ratio of 90% or more (almost completely withered)) | 4 (Herbicidal ratio of 70% or higher and lower than 90%) | 0 (Herbicidal ratio of 5% or lower (almost no effect)) | 0 (Herbicidal ratio of 5% or lower (almost no effect)) | 4 (Herbicidal ratio of 70% or higher and lower than 90%) | – |
| CCCC(=O)CC1CC(O)=C(c2c(C)cc(C)cc2C)C1=O (stereo not drawn) [2-021] | 2 (Herbicidal ratio of 20% or higher and lower than 40%) | 5 (Herbicidal ratio of 90% or more (almost completely withered)) | 0 (Herbicidal ratio of 5% or lower (almost no effect)) | 0 (Herbicidal ratio of 5% or lower (almost no effect)) | 0 (Herbicidal ratio of 5% or lower (almost no effect)) | 1 (Herbicidal ratio of 5% or higher and lower than 20%) | 0 (Herbicidal ratio of 5% or lower (almost no effect)) | 0 (Herbicidal ratio of 5% or lower (almost no effect)) | 4 (Herbicidal ratio of 70% or higher and lower than 90%) | 3 (Herbicidal ratio of 40% or higher and lower than 70%) | 5 (Herbicidal ratio of 90% or more (almost completely withered)) | 0 (Herbicidal ratio of 5% or lower (almost no effect)) | 0 (Herbicidal ratio of 5% or lower (almost no effect)) | 0 (Herbicidal ratio of 5% or lower (almost no effect)) | 3 (Herbicidal ratio of 40% or higher and lower than 70%) | – |

From US11000033B2, “Ketone or oxime compound, and herbicide” (NISSAN CHEMICAL CORPORATION, priority 2014, dated 2021)
